Test results: the NIST ThermoML archive (doi:10.1021/je200697m)
± gives the expanded uncertainty stated by the source.

Conditions: Liquid

| SMILES | vapor or sublimation pressure (337.84 K) [kPa] | vapor or sublimation pressure (363.41 K) [kPa] |
| --- | --- | --- |
| CO [methanol] | 101.32 ± 1.7 | – |
| COC(=O)OC [dimethyl carbonate] | – | 101.32 ± 1.7 |
